From patent US12516179B2, “Chitosan-based nanocomposite as an antimicrobial agent and corrosion inhibitor” (priority 2019, dated 2026)

Tests used:
zebrafish embryos [1] = assay: Zebrafish embryo acute toxicity assay (CZNCs); assay type: in vivo, zebrafish (Danio rerio), AB strain
Description: Fertilized embryos of wild type AB zebrafish strains (Danio rerio) were collected in E3 egg medium in Petri dishes. At 3 hours post-fertilization (hpf), unfertilized and abnormal embryos were discarded. The fertilized embryos were dechorionated with pronase at 24-hpf and retained in 6 well-plates containing E3 egg medium. Next, E3 egg medium was replaced by the different concentrations of drugs to be tested.
We investigated the toxicology of CZNCs nanomaterial with an acute toxicity assay adapted by the Organization of Economic Co-operation and Development (OECD) guideline for testing chemical toxicity (No 203 and 236) and modified it for nanoparticle testing. The purified (acetic acid-free) lyophilized CZNCs nanomaterial was weighted and dissolved in DI water, then sonicated in a water bath for 15 min for several cycles until a complete homogeneous solution is achieved. Next, 24-hpf healthy dechorionated embryos were transferred to 6 well-plate containing the following treatment dissolved in E3 egg medium: (i) four different concentrations (25, 50, 100, 250 μg/mL) of CZNCs (ii) the positive control DEAB ([…]), (iii) the negative control 0.1% DMSO and then incubated at 28.5° C. for an additional 72 h until their age reached 96-hpf. Cumulative survival and mortality were recorded at 3-time point intervals (48, 72, and 96 hpf), In addition, all embryos were observed every day for any teratogenic abnormalities. […] A total of 100 embryos were used for each tested dose condition of the CZNCs, and 20 embryos for DEAB and DMSO concentrations. The toxicity assessment was expressed as a percentage of survived embryos for 96-hpf. Teratogenic score was presented as average standard error of mean. This value was calculated at every stage as the sum of different teratogenic phenotypes, expressed in percentage respect to the total number of possible teratogenic phenotypes at that precise stage of observation.

zebrafish embryos [2] = assay: Zebrafish embryo acute toxicity assay (CNLS-NCs); assay type: in vivo, zebrafish (AB strain); conditions: exposure 24-72 hpf
Description: We used wild type zebrafish embryos (AB strain) in our study. For detailed information about our zebrafish aquatic system (Aquaneering, USA), original source of the zebrafish, zebrafish culture, mating protocol, and animal protocol guidelines, the reader is advised to visit the following articles. For the acute toxicity assay, at 24-hours post fertilization (hpf), embryos were dechorionated as described in. Briefly, E3 media were removed and 0.5 mg/mL of pronase enzyme (Sigma, Germany) in 10 mL PTU-E3 media was added and incubated for 10 min at 28° C. until the chorion become soft. Then, embryos were washed 2-3 times with PTU-E3 medium until the embryos were released and free from the chorion. […] The mortality rate and teratogenicity (morphological deformities) were observed and recorded at 2-time point intervals (48 and 72-hpf) using a standard stereo microscope (Zeiss, Germany). The teratogenic effects of both nanoparticles were determined based on the normal embryo morphology of the negative control (FIG. 9A), and abnormal morphology [defects in body size, heart and yolk edema, scoliosis, pigmentation, and movement problem (FIG. 9B)] of the positive control. Teratogenicity was scored at 72-hpf by calculating the number of dead and deformed embryos over the total number of […] embryos used in each concentration (50 embryos). […]

[3] = tested on: SRB induced corrosion on carbon steel (SS400); assay: EIS of carbon steel (SS400) coupons incubated in SRB media with CLNC / CS@LS; conditions: SRB with 5% GA
Description: The carbon steel coupons were incubated in liquid medium containing enriched SRB biomass (250 mg·VSS/L) along with modified Postage's C medium in simulated inject seawater. […] 200 ml plastic bottles were used for the incubation experiments. The coupons were incubated without CLNC to evaluate the SRB induced corrosion on carbon steel. In next stage, the optimum conditions of the nanocomposite have been verified by using different ratio nanocomposites as well as optimum concentration has been tested by using different concentrations of optimum ratio CLNC. Then the optimum concentration of CLNC were added in the incubating mixture to evaluate the corrosion inhibition imparted by the nanocomposite at different time intervals. The abiotic conditions were made by incubating coupons in same manner without any SRB and nanocomposite to differentiate the SRB induced corrosion from chemical corrosion. All incubation experiments were performed in anaerobic chamber to maintain the anaerobic condition throughout the experiments. […]
EIS analysis was carried out using Gamry potentiostat (Gamry 600+, FA, USA) using the SRB treated carbon steel coupon as a working electrode, calomel and graphite disk electrodes as reference and counter electrodes, respectively. […] The EIS measurements were recorded at an open circuit potential with a 10 mV sinusoidal signal over the frequency range of 0.01-10^5 Hz Before the EIS measurements, steady state conditions were achieved by keeping the whole setup at open circuit potential (OCP) for 30 min. Potentiodynamic polarization curves were measured by scanning the potential from −250 mV to +250 mV vs OCP at a sweep rate of 0.167 mV/s. The experimental results were analyzed by Gamry Echem Analyst software version 7.05.
The mixed SRB culture was enriched from sludge biomass obtained from an offshore oil filed in Qatar. […] The optimum concentration of CS@LS was evaluated in the range of 0-1000 μg·mL^−1 CS@LS and EIS analysis was performed after 10 days of incubation. […]

CCN(CC)c1ccc(C=O)cc1 [DEAB, Diethylaminobenzaldehyde]
LOEC (zebrafish embryos [1]; 96-hpf, =>20% mortality): 1.0 µM
cumulative mortality (zebrafish embryos [1]; DEAB 1.0 μM, 96-hpf): 60%
cumulative mortality (zebrafish embryos [1]; DEAB at NOEC (0.1), 96-hpf): 10%
LC50 (zebrafish embryos [1]; sigmoidal curve, 95% confidence limit): 0.94 µM
LC50 (zebrafish embryos [2]): 2.5 µM

O=CCCCC=O [GA, glutaraldehyde]
bacterial growth [3]: complete bacterial growth can be inhibited
Rct ([3]; 15 days): 158.8 Ω·cm^2
Rf ([3]; 15 days): 136.4 Ω·cm^2
